{
  "source": "patent US9249153B2",
  "about": "“Pharmaceutical composition for treating aging-associated diseases, containing progerin expression inhibitor as active ingredient, and screening method of said progerin expression inhibitor” (PUSAN NATIONAL UNIVERSITY INDUSTRY-UNIVERSITY COOPERATION …, priority 2011, dated 2016)",
  "key": {"[1]": {"test_system": "transcriptional activity of p53", "assay": "p21-luc luciferase assay", "type": "cell-based", "settings": "C2 cells, Adr treatment", "protocol": "To measure p21 activity, a p21-luc vector was co-transfected, together with si RNAs, to 293 cells for 24 hrs. The cells were washed and treated with adriamycin for 2 hrs. After they were washed with a wash buffer (Promega), the cells were lyzed in a lysis buffer. Luciferase activity was determined using a luminometer.\nTo confirm the re-activation of p53 in response to progerin knock down, the transcriptional activity of p53 was monitored using a p21-luc system."}, "[2]": {"test_system": "p53", "assay": "p53 induction in human fibroblasts (normal, HGPS, WS)", "type": "cell-based", "procedure": "Whole cell lysates were prepared in RIPA buffer, and centrifuged at 14,000 rpm for 30 min. Twenty micrograms of cell extracts were separated by SDS-polyacrylamide gel electrophoresis and transferred onto a PVDF membrane. The membrane was incubated for 1 hr to overnight at 4° C. with an appropriated primary antibody, followed by reaction with a secondary antibody at room temperature for 1 hr. Peroxidase activity was detected by chemiluminescence with an ECL kit (Intron) as recommended by the manufacturer.\nThe molecular mechanism of the inhibitory activity of progerin against p53 was scrutinized and p53 responsibility to DNA damage was determined in human progeria cell lines (HGPS and WS). […] WS cells are known to be insensitive to DNA damage-induced p53 activation, and as previously observed, WS cells can also express progerin.\nKeeping in mind the fact that p53 is tightly regulated by the MDM2 pathway, the engagement of progerin with MDM2-mediated p53 suppression was also tested by treatment of Nutlin-3, which is a blocker between MDM2 and p53 and induces p53 expression. […] Considering the results, the elevated expression of progerin would be involved in DNA damage-induced p53 activation and MDM2-mediaeted p53 suppression."}, "[3]": {"molecular_target": "T1, progerin-Lamin A binding (Homo sapiens, UniProt P02545)", "T1 sequence (P02545 515-614 isoform P02545-6 limits assumed)": "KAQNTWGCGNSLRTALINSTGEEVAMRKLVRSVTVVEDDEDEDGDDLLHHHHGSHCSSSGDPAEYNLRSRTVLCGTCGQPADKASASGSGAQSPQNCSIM", "assay": "ELISA-based screening of LMN A-Prg binding inhibitors", "settings": "0.1 mM final concentration", "procedure": "To isolate a Lamin A-Prg binding inhibitor, ELISA analysis was carried out. GST-progerin-C or LMN A-His was fixed with 0.5% paraformaldehyde on 96-well plates. After drying and washing steps, lysates of HEK 293 cells transfected with GFP-Lamin A, GST-Lamin A-C, or GST-progerin-C were incubated for 1 hr with a 0.1 mM (final concentration) binding inhibitor of the present invention. The 96-well plates were washed with TBST, followed by reaction with an anti-GFP-Ab (1:10,000, 45 min), an anti-GST-Ab (1:10,000, 45 min) and an anti-mouse-IgG-HRP (1:50,000, 30 min). The plates were washed twice, and incubated with a TMB solution (Calbiochem) and then with a stop solution (1 N H2SO4). Absorbance was read on an ELISA reader.\nIf progerin-induced senescence is mediated by binding LMN A, an inhibitor against binding between LMN A and progerin would block the progerin-induced pathological features. […] In this regard, an ELISA-based screening system was established. Briefly, progerin immobilized in 96-well plates was incubated with candidates from a chemical library, together with GFP-LMN A. Subsequently, association between progerin and the GFP protein was monitored in the presence of the inhibitor candidates (FIG. 15A). From the chemical library, four effective different compounds (JH-0307809; JH1, JH-02051109; JH13, JH-03070708; JH4, and LG-02-089-23; LG-02) were selected (FIGS. 15B and 16B), and analyzed by the monitoring (FIG. 16A). […] Their cytotoxicity was evaluated by MTT assay (FIGS. 15B and 16C)."}, "[4]": {"molecular_target": "LMN A-progerin binding (Homo sapiens, UniProt P02545)", "settings": "in vitro binding assay"}, "[5]": {"test_system": "HGPS cells", "assay": "nuclear LMN A/C staining in two kinds of HGPS cells", "type": "cell-based, human", "settings": "for nuclear deformation: two kinds of HGPS cells, incubation for 24 hrs"}, "[6]": {"molecular_target": "T2, Prg-LMN A binding (Homo sapiens, UniProt P02545)", "T2 sequence (P02545 515-614 isoform P02545-6 limits assumed)": "T1 sequence (P02545 515-614 isoform P02545-6 limits assumed)", "settings": "GST-pull down, cell lysate", "protocol": "For the binding assay, GST-bead-fused Lamin A-C or progerin-C was incubated for 2 hrs at room temperature with a lysate of 293 cells transfected with the lamin A-N terminal region, or GFP-Lamin A, B or C. After washing twice with PBS and once with RIPA, the precipitates were collected, and subjected into SDS-PAGE and Western blot analysis with anti-GFP, His, and GST antibodies.\nThe candidates were examined for inhibitory activity against LMN A-progerin binding by an in vitro binding assay. […] Also, the compounds were analyzed for in vivo cellular effect by performing IP with a progerin antibody in HGPS fibroblasts after treatment with them for 24 hrs."}, "[7]": {"test_system": "p53", "assay": "p53 expression and DNA damage response in RCC cell lines", "type": "cell-based, human", "settings": "C2 and Caki-2 cell lines", "protocol": "In addition, p53 expression and responsibility for DNA damage in Caki-2 were determined after transfection with si-progerin."}, "[8]": {"test_system": "RCC", "assay": "nuclear irregularity of RCC (Example 2)", "type": "cell-based, human", "procedure": "Based on our observation that the nuclear irregularity of RCC is caused by progerin and improved by FTI, the JH compounds were also examined for effect on RCC. Like FTI, the JH compounds ameliorated nuclear irregularity (FIG. 25). […] They were tested in vivo."}, "[9]": {"molecular_target": "self association of LMN A (Homo sapiens, UniProt P02545)", "sequence (P02545 whole entry)": "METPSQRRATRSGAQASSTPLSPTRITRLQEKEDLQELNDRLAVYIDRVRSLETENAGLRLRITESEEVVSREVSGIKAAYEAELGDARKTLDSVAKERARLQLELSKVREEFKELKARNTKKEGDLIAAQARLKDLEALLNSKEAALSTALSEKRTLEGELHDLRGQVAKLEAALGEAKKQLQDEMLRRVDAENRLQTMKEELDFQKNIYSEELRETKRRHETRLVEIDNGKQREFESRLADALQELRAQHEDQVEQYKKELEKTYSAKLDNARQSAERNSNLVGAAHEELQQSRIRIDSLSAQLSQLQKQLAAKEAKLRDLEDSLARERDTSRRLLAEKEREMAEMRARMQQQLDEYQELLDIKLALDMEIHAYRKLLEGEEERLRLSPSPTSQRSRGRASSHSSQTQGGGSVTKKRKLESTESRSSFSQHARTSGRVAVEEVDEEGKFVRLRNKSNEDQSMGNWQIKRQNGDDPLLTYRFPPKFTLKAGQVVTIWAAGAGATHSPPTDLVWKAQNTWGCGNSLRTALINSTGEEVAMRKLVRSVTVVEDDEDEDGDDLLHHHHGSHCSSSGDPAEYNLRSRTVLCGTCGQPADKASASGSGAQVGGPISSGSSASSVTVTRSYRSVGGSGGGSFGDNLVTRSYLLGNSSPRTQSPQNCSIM"}, "[10]": {"test_system": "association between LMN A and LMN B"}, "[11]": {"test_system": "HGPS cells", "assay": "cell counting, HGPS cells", "type": "cell-based, human", "procedure": "(§1) For cell counting, cells were harvested from media, and stained for 10 min at room temperature with Trypan blue. Viable cells were counted using a hemocytometer."}, "[12]": {"test_system": "normal fibroblasts", "assay": "cell counting, normal fibroblasts", "type": "cell-based, human", "procedure": "as §1"}, "[13]": {"test_system": "HGPS and normal cells", "assay": "senescence-specific β-galactosidase staining (SA-β-Gal)", "type": "cell-based, human", "procedure": "For senescence-specific acidic-β-galactosidase activity staining, cells were washed once with PBS (pH 7.2) and fixed with PBS containing 0.5% glutaraldehyde. After being washed with PBS, the cells were stained overnight at 37° C. in an X-gal solution (Senescence β-Galactosidase Staining kit; Cell Signaling Technology)."}, "[14]": {"test_system": "LMN A mutants", "protocol": "GFP-fused progerin and GFP-fused Lamin A expression vectors were kindly provided by Scaffidi and Misteli (NCI). GRP-fused Lamin B and Lamin C were granted from Lammerding J (Brigham and Women's Hospital/Harvard Medical School). A mutant of Lamin A was granted from Tesson F (University of Ottawa). A Myc-ARF vector and a non-tagged progerin vector were purchased from Addgene. For mammalian expression of these vectors, transfection was performed with the aid of Jetpei (Polyplus). In 150 nM NaCl solution, 1.5 μg of each vector was mixed with 1.5 μl of the Jetpei reagent. After incubation for 15 min at room temperature, the mixture was added to the cells. After 3 hrs, the 10% FBS medium was replaced by a serum-free medium.\nEffects of the JH chemicals on LMN A mutants were investigated."}},
  "data": [
    {"molecule": "COc1cccc2c1C(=O)c1c(O)c3c(c(O)c1C2=O)C[C@@](O)(C(=O)CO)C[C@@H]3O[C@H]1C[C@H](N)[C@H](O)[C@H](C)O1", "note": "[Adr, adriamycin]", "values": [
      {"measurement": "p21-luc expression / activation", "setting": "[1]", "result": "did not increase p21-luc expression"},
      {"measurement": "p53 induction", "setting": "[2]; HGPS cells", "result": "did not show the induction of p53"},
      {"measurement": "p53 induction", "setting": "[2]; Werner syndrome (WS) cells", "result": "did not show the induction of p53"},
      {"measurement": "p53 induction", "setting": "[2]; normal cells", "result": "obviously increased"}
    ]},
    {"molecule": "CC1(C)Oc2cc3oc(=O)ccc3cc2C[C@@H]1OC(=O)C=Cc1ccc(O)c(O)c1", "note": "[JH13, (7S)-(+)-3-(3,4-Dihydroxy-phenyl)-acrylic acid, 8,8-dimethyl-2-oxo-6,7-dihydro-2H,8H-pyrano[3,2-g]chromen-7-yl-ester]", "values": [
      {"measurement": "inhibition of association between immobilized progerin and GFP-LMN A (screening)", "setting": "[3]", "result": "effective"},
      {"measurement": "inhibitory activity against LMN A-progerin binding", "setting": "[4]", "result": "block LMN A-progerin binding"},
      {"measurement": "nuclear deformation", "setting": "[5]", "result": "ameliorated the nuclear deformation"},
      {"measurement": "blocking of Prg-LMN A interaction", "setting": "[6]", "result": "blocking ability of JH4 and JH13 was also demonstrated"}
    ]},
    {"molecule": "COc1ccc(C2=N[C@@H](c3ccc(Cl)cc3)[C@@H](c3ccc(Cl)cc3)N2C(=O)N2CCNC(=O)C2)c(OC(C)C)c1", "note": "[Nutlin-3]", "values": [
      {"measurement": "p53 induction", "setting": "[7]", "result": "did not induce p53 obviously"},
      {"measurement": "p53 induction", "setting": "[2]; HGPS cells", "result": "partial response"},
      {"measurement": "p53 induction", "setting": "[2]; normal cells", "result": "induced p53 obviously"}
    ]},
    {"molecule": "COC(=O)[C@H](CCSC)NC(=O)c1ccc(NC[C@@H](N)CS)cc1-c1ccccc1", "note": "[FTI]", "values": [
      {"measurement": "nuclear irregularity of RCC", "setting": "[8]", "result": "improved"},
      {"measurement": "blocking of Prg-LMN A interaction", "setting": "[6]", "result": "block the interaction, but slightly"}
    ]},
    {"molecule": "CC1(C)Oc2cc3oc(=O)ccc3cc2C[C@@H]1OC(=O)C=Cc1cccnc1", "note": "[JH4, (7S)-(+)-3-(3-Pyridyl)-acrylic acid, 8,8-dimethyl-2-oxo-6,7-dihydro-2H,8H-pyrano[3,2-g]chromen-7-yl-ester]", "values": [
      {"measurement": "inhibition of association between immobilized progerin and GFP-LMN A (screening)", "setting": "[3]", "result": "effective"},
      {"measurement": "inhibitory activity against LMN A-progerin binding", "setting": "[4]", "result": "block LMN A-progerin binding"},
      {"measurement": "disruption of self association of LMN A", "setting": "[9]", "result": "did not disrupt"},
      {"measurement": "disruption of association between LMN A and LMN B", "setting": "[10]", "result": "did not disrupt"},
      {"measurement": "nuclear deformation, effect relative to the other compounds", "setting": "[5]; HGPS cells (FIG. 17D)", "result": "more obvious effect than the other compounds"},
      {"measurement": "nuclear deformation", "setting": "[5]", "result": "ameliorated the nuclear deformation"},
      {"measurement": "cell proliferation", "setting": "[11]", "result": "promoted cell proliferation"},
      {"measurement": "cell proliferation", "setting": "[12]", "result": "induced cell proliferation"},
      {"measurement": "SA-β-gal", "setting": "[13]", "result": "could suppress SA-β-gal"},
      {"measurement": "effect on LMN A mutants related with laminopathy", "setting": "[14]", "result": "did not show a favorable effect"}
    ]},
    {"molecule": "CC1(C)Oc2cc3oc(=O)ccc3cc2C[C@@H]1OC(=O)CCc1ccc(O)c(O)c1", "note": "[JH1, (7S)-(+)-3-(3,4-Dihydroxyphenyl)propionic acid, 8,8-dimethyl-2-oxo-6,7-dihydro-2H,8H-pyrano[3,2-g]chromen-7-yl-ester]", "values": [
      {"measurement": "inhibition of association between immobilized progerin and GFP-LMN A (screening)", "setting": "[3]", "result": "effective"},
      {"measurement": "nuclear deformation", "setting": "[5]", "result": "ameliorated the nuclear deformation"}
    ]},
    {"molecule": "CC1(C)Oc2ccc3oc(=O)ccc3c2C[C@@H]1OC(=O)C=Cc1ccc(O)c(O)c1", "note": "[LG-02, (6S)-(−)-3-(3,4-Dihydroxy-phenyl)-acrylic acid, 7,7-dimethyl-2-oxo-5,6-dihydro-7H-pyrano[3,2-f]chromen-6-yl-ester]", "values": [
      {"measurement": "inhibition of association between immobilized progerin and GFP-LMN A (screening)", "setting": "[3]", "result": "effective"}
    ]}
  ]
}
